For orientation: melting point means the temperature of the solid-liquid transition. Usually IC50 stands for the midpoint of a concentration-inhibition curve.

Test system in the first data set: not given
Assay: not given
Conditions: not given
Compound `O=C(Nc1nnn[nH]1)c1oc2ccc(Cl)cc2c1OCC1CC1` [Example 44, 5-Chloro-3-cyclopropylmethoxy-benzofuran-2-carboxylic acid (1H-tetrazol-5-yl)-amide] registered a melting point of 243 to 244 °C.

Another data set deals with T1, p101/p110γ protein (PI3Kγ) (Homo sapiens, UniProt P48736).
T1 construct: HA; made in house; host or cells: Spodoptera frugiperda (Sf9) cells, baculovirus coinfection
T1 sequence (P48736 whole entry, species assumed): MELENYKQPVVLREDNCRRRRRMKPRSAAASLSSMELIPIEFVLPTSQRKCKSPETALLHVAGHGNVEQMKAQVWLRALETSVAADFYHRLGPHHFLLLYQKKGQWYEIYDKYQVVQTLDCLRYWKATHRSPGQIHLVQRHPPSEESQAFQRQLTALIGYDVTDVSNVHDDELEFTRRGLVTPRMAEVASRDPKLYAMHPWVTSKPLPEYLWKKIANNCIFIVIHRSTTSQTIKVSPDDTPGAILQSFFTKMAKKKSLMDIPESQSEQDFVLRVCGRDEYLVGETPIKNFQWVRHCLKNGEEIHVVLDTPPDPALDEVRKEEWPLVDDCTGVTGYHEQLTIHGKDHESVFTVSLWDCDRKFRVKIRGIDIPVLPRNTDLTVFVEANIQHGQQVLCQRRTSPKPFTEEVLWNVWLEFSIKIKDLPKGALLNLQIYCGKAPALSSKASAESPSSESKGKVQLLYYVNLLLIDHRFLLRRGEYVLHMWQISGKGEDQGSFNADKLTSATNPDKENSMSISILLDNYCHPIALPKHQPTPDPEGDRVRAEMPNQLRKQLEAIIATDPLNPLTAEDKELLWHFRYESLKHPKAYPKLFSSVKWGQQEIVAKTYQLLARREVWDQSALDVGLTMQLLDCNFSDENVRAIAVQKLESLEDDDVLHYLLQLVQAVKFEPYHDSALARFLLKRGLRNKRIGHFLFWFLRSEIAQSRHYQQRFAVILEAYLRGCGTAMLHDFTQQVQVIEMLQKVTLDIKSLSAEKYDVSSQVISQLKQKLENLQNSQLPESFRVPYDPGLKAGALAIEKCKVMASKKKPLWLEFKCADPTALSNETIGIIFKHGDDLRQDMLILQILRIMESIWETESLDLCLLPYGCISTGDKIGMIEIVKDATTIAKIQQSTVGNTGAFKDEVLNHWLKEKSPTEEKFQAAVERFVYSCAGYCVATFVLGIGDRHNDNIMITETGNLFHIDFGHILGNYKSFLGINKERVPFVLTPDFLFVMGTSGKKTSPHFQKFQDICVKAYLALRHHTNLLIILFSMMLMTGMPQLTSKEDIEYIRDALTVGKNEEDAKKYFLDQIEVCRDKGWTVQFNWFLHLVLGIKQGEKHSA
T1 sequence (Q8WYR1 whole entry partner, species assumed): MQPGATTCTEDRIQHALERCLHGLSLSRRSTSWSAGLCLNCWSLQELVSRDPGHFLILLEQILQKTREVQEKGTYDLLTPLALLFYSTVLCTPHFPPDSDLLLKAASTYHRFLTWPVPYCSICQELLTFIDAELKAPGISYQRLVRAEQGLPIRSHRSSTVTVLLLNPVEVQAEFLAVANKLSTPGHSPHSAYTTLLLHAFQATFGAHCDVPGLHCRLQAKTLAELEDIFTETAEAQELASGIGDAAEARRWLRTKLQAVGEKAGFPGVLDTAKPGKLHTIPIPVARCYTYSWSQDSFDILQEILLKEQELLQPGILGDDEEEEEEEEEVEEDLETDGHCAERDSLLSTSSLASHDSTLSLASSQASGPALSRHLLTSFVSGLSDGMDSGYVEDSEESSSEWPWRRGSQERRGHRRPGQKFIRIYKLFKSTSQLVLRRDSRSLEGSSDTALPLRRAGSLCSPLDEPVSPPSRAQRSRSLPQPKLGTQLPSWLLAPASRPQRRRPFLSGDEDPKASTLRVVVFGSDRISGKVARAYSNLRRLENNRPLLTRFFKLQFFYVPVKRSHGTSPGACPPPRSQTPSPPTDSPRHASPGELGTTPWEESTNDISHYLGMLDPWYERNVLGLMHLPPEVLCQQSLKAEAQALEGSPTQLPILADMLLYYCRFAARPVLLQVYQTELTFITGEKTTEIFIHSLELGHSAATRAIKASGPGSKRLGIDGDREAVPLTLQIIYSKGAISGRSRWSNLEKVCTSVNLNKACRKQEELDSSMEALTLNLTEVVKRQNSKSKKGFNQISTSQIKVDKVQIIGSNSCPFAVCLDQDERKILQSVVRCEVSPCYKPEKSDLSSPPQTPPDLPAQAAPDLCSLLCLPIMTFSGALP
As to the kind of experiment: PI3Kγ In Vitro Kinase Assay. Type of data set: biochemical. The settings on record: purified recombinant p101/p110γ with G protein β1/γ2 subunits; 20 μM ATP, [γ-32P-ATP]; 25 μM PIP2 lipid micelles; 20 minutes at room temperature. The method, then: Spodtera frugiperda cells, grown in ESF921 media, were coinfected with baculovirus expressing a glu-tagged p101 and baculovirus expressing an HA-tagged p110γ, at a 3:1 ratio of p101 baculovirus to p110γ baculovirus. Sf9 cells were grown to 1×10^7 total cells/mL in 10L bioreactors and harvested 48-72 hours post infection. Samples of infected cells were then tested for expression of p101/p110γ PI3 kinase by immunoprecipitation and Western Blot analysis methods (see below). To purify PI3Kγ, 4 volumes of room temperature hypotonic lysis buffer (1 mM MgCl2, 1 mM DTT, 5 mM EGTA, 1 mM Pefabloc, 0.5 μM aprotinin, 5 μM leupeptin, 2 μM pepstatin, 5 μM E64, pH 8) per gram of cell paste, was poured onto frozen cell pellets with stirring, then lysed in a nitrogen “bomb” at 400 psi (599HC […], Parr Instrument Co, Moline, Ill.). NaCl was added to 150 mM, and sodium cholate was added to 1% and mixed for another 45 minutes. The lysates were clarified by centrifugation for 25 minutes at 14,000 rpm. The lysates were then loaded over anti-glu-linked Protein-G Sepaharose beads (Covance Research Products, Richmond, Calif.) using 20 mL resin/50 g cell paste. The column was washed with 15 volumes of wash buffer (1 mM DTT, 0.2 mM EGTA, 1 mM Pefabloc, 0.5 μM aprotinin, 5 μM leupeptin, 2 μM pepstatin, 5 μM E64, 150 mM NaCl, 1% sodium cholate, pH 8). PI3Kγ was eluted with 6 column volumes of wash buffer that contain 100 μg/mL of a peptide that competes for binding of the glu tag. The column fractions with the eluted protein (determined by taking OD280 readings) were collected and dialyzed in 0.2 mM EGTA, 1 mM DTT, 1 mM Pefabloc, 5 μM leupeptin, 0.5% sodium cholate, 150 mM NaCl, and 50% glycerol, pH 8. The fractions were stored at -80° C. until further use. Spodtera frugiperda cells were coinfected with baculovirus expressing a glu-tagged G protein β1 and baculovirus expressing a G protein […], at a 1:1 ratio of glu-tagged G protein β1 baculovirus to G protein β2 baculovirus. Sf9 cells are grown in 10 L bioreactors and harvested 48-72 hours post infection. Samples of infected cells were tested for G protein β1/β2 expression by Western Blot analysis, as described below. Cell lysates were homogenized and loaded onto a column of glu-tagged beads as in Biological Example 1 and competed off the column with a glu peptide and processed as described in Biological Example 1. The inhibitory properties of the compounds in Table 1 were assayed in an in vitro PI3K assay. In a 96-well polypropylene plate, each well was spotted with 2 μL of 50 times the desired final concentration of compound in DMSO. Purified recombinant p101/p110γ protein (0.03 μg; 2.7 nM) and G protein β1/γ2 subunits (0.09 μg; 57.7 nM) for each reaction was combined in the assay buffer (30 mM HEPES, 100 mM NaCl, 1 mM EGTA, and 1 mM DTT). ATP and [γ-^32P-ATP] (0.09 μCi) were added to this mixture so that the final ATP concentration in the reaction was 20 μM. Lipid micelles were formed by sonicating phosphatidylinositol-4,5-diphosphate (PIP2), phosphatidylethanolamine (PE), and Na-cholate in the assay buffer for 10 minutes, adding MgCl2 and incubating on ice for 20 minutes, for final concentrations of 25 μM PIP2, 300 μM PE, 0.02% Na-cholate, and 10 mM MgCl2 in the reaction. The reactions were started by adding equal volumes lipid and enzyme mixture in a total volume of 50 μL, allowed to run for 20 minutes at room temperature, and stopped with 100 μL 75 mM H3PO4. The lipid product was transferred to a glass fiber filter plate and washed with 74 mM H3PO4 several times. The presence of radioactive lipid product (PIP3) was measured by adding Wallac Optiphase mix to each well and counting in a Wallac 1450 Trilux plate reader (PerkinElmer Life Sciences Inc., Boston, Mass. 02118). The IC50 for each compound tested is reported in μM in Table 1: […]
For the compound “3-Cycloheptylmethoxy-5-methoxy-benzofuran-2-carboxylic acid (1H-tetrazol-5-yl)-amide [Example 29]”, the IC50 is 108 nM. Same read-out and setting: the result for “3-Cycloheptyloxy-5-methoxy-benzofuran-2-carboxylic acid (1H-tetrazol-5-yl)-amide [Example 26]” reads 97 nM. The same measure, in the same setting: for “5-Chloro-3(1-methyl-cyclopropoxymethoxy)-benzofuran-2-carboxylic acid (1H-tetrazol-5-yl)-amide [Example 34]” the value was 1460 nM; for “5-Methoxy-3-(1-methyl-cyclomethoxy)-benzofuran-2-carboxylic acid (1H-tetrazol-5-yl)-amide [Example 24]”, 220 nM. The same measure, in the same setting: for “5-Methoxy-3-(6-methyl-cyclohex-3-enylmethoxy)-benzofuran-2-carboxylic acid (1H-tetrazol-5-yl)-amide [Example 16]” the value was 185 nM. With `COc1ccc2oc(C(=O)Nc3nnn[nH]3)c(OC3CCCCC3C)c2c1` (stereo not drawn) [Example 5, 5-Methoxy-3-(2-methyl-cyclohexyloxy)-benzofuran-2-carboxylic acid (1H-tetrazol-5-yl)-amide], the IC50 is 180 nM.

Regarding `C=C(C)C1CCC(C)C(Oc2c(C(=O)Nc3nnn[nH]3)oc3ccc(OC)cc23)C1` (stereo not drawn) [Example 7, 3-(5-Isopropenyl-2-methyl-cyclohexyloxy)-5-methoxy-benzofuran-2-carboxylic acid (1H-tetrazol-5-yl)-amide], the IC50 is 700 nM. Turning to `COc1ccc2oc(C(=O)Nc3nnn[nH]3)c(OC3CCCC3C)c2c1` (stereo not drawn) [Example 8, 5-Methoxy-3-(2-methyl-cyclopentyloxy)-benzofuran-2-carboxylic acid (1H-tetrazol-5-yl)-amide], the IC50 worked out at 305 nM. The same measure, in the same setting: the result for `COc1ccc2oc(C(=O)Nc3nnn[nH]3)c(OC3CCCC(C)C3)c2c1` (stereo not drawn) [Example 14, 5-Methoxy-3-(3-methyl-cyclohexyloxy)-benzofuran-2-carboxylic acid (1H-tetrazol-5-yl)-amide] reads 67 nM. For `COc1ccc2oc(C(=O)Nc3nnn[nH]3)c(OC3CC(C)CC(C)C3)c2c1` (stereo not drawn) [Example 17, 3-(3,5-Dimethyl-cyclohexyloxy)-5-methoxy-benzofuran-2-carboxylic acid (1H-tetrazol-5-yl)-amide], the IC50 was determined as 100 nM.

Regarding `COc1ccc2oc(C(=O)Nc3nnn[nH]3)c(OC3CCCCC3C)c2c1` (stereo not drawn) [Example 18, 5-Methoxy-3-(2-methyl-cyclohexyloxy)-benzofuran-2-carboxylic acid (1H-tetrazol-5-yl)-amide], the IC50 worked out at 130 nM. Still for that read-out and setting: the result for `O=C(Nc1nnn[nH]1)c1oc2ccc(Cl)cc2c1OCC1CCC1` [Example 35, 5-Chloro-3-cyclobutylmethoxy-benzofuran-2-carboxylic acid (1H-tetrazol-5-yl)-amide] reads 3100 nM; that for `O=C(Nc1nnn[nH]1)c1oc2ccc(Cl)cc2c1OC1CCCCCC1` [Example 36, 5-Chloro-3-cycloheptyloxy-benzofuran-2-carboxylic acid (1H-tetrazol-5-yl)-amide], 950 nM.

In the case of `O=C(Nc1nnn[nH]1)c1oc2ccc(Cl)cc2c1OC1CCC1` [Example 37, 5-Chloro-3-cyclobutoxy-benzofuran-2-carboxylic acid (1H-tetrazol-5-yl)-amide], the IC50 came out at 2020 nM. The same measure, in the same setting: for `O=C(Nc1nnn[nH]1)c1oc2ccc(Cl)cc2c1OCC1CCCC1` [Example 38, 5-Chloro-3cyclopentylmethoxy-benzofuran-2-carboxylic acid (1H-tetrazol-5-yl)-amide] the value was 1040 nM. On the same count and under the same terms, for `CC(Oc1c(C(=O)Nc2nnn[nH]2)oc2ccc(Cl)cc12)C1CCCC1` (stereo not drawn) [Example 39, 5-Chloro-3-(1-cyclopentyl-ethoxy)-benzofuran-2-carboxylic acid (1H-tetrazol-5-yl)-amide] the value was 2700 nM; for `CC1CCC(Oc2c(C(=O)Nc3nnn[nH]3)oc3ccc(Cl)cc23)CC1C` (stereo not drawn) [Example 40, 5-Chloro-3-(3,4-dimethyl-cyclohexyloxy)-benzofuran-2-carboxylic acid (1H-tetrazol-5-yl)-amide], 1100 nM. Same read-out and setting: for `CC1CC(C)CC(Oc2c(C(=O)Nc3nnn[nH]3)oc3ccc(Cl)cc23)C1` (stereo not drawn) [Example 41, 5-Chloro-3-(3,5-dimethyl-cyclohexyloxy)-benzofuran-2-carboxylic acid (1H-tetrazol-5-yl)-amide] the value was 480 nM; for `O=C(Nc1nnn[nH]1)c1oc2ccc(Cl)cc2c1OC1CCCCC1` [Example 42, 5-Chloro-3-cyclohexyloxy-benzofuran-2-carboxylic acid (1H-tetrazol-5-yl)-amide], 645 nM. Regarding `O=C(Nc1nnn[nH]1)c1oc2ccc(Cl)cc2c1OCC1CC1` [Example 44, 5-Chloro-3-cyclopropylmethoxy-benzofuran-2-carboxylic acid (1H-tetrazol-5-yl)-amide], the IC50 turned out to be 9420 nM.

These data come from patent US20050020631A1, “3-Substituted benzofurans as therapeutic agents” (priority 2003, published 2005).
